Source: PubChem BioAssay AID179 (DTP/NCI, 2004)
Where “and” joins values, the source holds several entries; their conditions need not be identical. Equal values may be shown once. Calls of active or inactive are those of the source.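 The calls were made as follows: active = compounds giving half or more protection of infected cells from virus-caused growth loss, again on retest; inactive = the rest.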 Where a SMILES comes first, the peptide text is derived from it. The star is where a group is joined. Fmoc = O=C(OCC1c2ccccc2-c2ccccc21)*; Boc = CC(C)(C)OC(=O)*

System: CEM cells HIV-1 protection, formazan growth assay
Test: NCI AIDS Antiviral Assay
Conditions: for IC50: measured here: growth of uninfected CEM cells
Method in brief: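 Five concentrations of each compound were applied to infected and uninfected human CEM cells. Protection from HIV-1 was judged from growth measured with a soluble formazan assay.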

| Structure (SMILES) | EC50 | IC50 | outcome |
| --- | --- | --- | --- |
| COC(=O)C12CCC(CC1=O)C2(C)C (stereo unspecified) | > 251 µM | > 251 µM | – |
| O=[N+]([O-])c1cccc(SSc2cccc([N+](=O)[O-])c2)c1 | > 200 µM and 20.4 µM | 4.57 µM and 34.7 µM and 6.31 µM | – |
| Nc1ncnc2c1ncn2C(=O)NC12CC3CC(CC(C3)C1)C2 | > 100 µM | > 100 µM | – |
| CCC[CH2][Sn]1([CH2]CCC)[O]C(c2ccccn2)S(=O)(=O)[O]1 (stereo unspecified) | > 30.9 µM | 0.178 µM | – |
| Cc1cc(-c2no[n+]([O-])c2-c2cc(C)sc2S(C)(=O)=O)c(S(C)(=O)=O)s1 | > 200 µM | > 200 µM | – |
| CC(SC(=N)N)C(=N)N (stereo unspecified) | > 200 µM | > 200 µM | – |
| COc1cccc(NC(=O)CC(=O)N2N=C(C)C(N=Nc3ccc(S(=O)(=O)c4ccc(N=NC5C(=O)N(C(=O)CC(=O)Nc6cccc(OC)c6)N=C5C)cc4)cc3)C2=O)c1 (stereo unspecified) | 178 µM | > 200 µM | – |
| CN(C(=N)c1ccccc1)c1ccccc1 | – | – | inactive |
| CC[C@@]1(OC(=O)CN(C)C)C(=O)OCc2c1cc1n(c2=O)Cc2cc3ccccc3nc2-1 | > 10 µM | 0.0229 µM | – |
| Brc1ccc(N=NN2CCCCC2)cc1 | > 200 µM | 18.6 µM | – |
| CC(=O)/C(=C/c1ccccc1F)C(=O)c1ccccc1 | > 26.9 µM | > 26.9 µM | – |
| COC(=O)C1(Cc2ccccc2)Cc2cc3c(cc2C1O)CCC3 (stereo unspecified) | > 200 µM | 24 µM | – |
| C/C(=N\Oc1cc(Cl)ncn1)c1ccccn1 | > 200 µM | 30.2 µM | – |
| O=C1CN(CCCN2CCOCC2)CC(=O)N2Cc3ccccc3CN12 | > 200 µM | > 200 µM | – |
| Cc1ccc(C)n1-n1c(Cc2ccccc2)n[nH]c1=O | > 200 µM | 83.2 µM | – |
| C#CC1(O)C(/C=N/O)OC(n2ccc(=O)[nH]c2=O)C1O[Si](C)(C)C(C)(C)C (stereo unspecified) | > 200 µM | 72.4 µM | – |
| O=C1OC(c2ccccc2)(c2ccccc2)C(=O)OC1(c1ccccc1)c1ccccc1 | > 200 µM | 148 µM | – |
| Cc1cc(=O)n2c3c(c4c(cc13)c(CO)cc(=O)n4C)OC2 | – | – | inactive |
| CN(C)c1ccc(/C=N/NC2=N/C(=C\c3ccco3)C(=O)N2)cc1 | > 100 µM | > 100 µM | – |
| CC(=O)OC1CC2C(=O)C(=O)C1(C)C2(C)C (stereo unspecified) | > 200 µM | > 200 µM | – |
| COc1ccc(/C=N/NC(N)=O)cc1 | > 186 µM | > 186 µM | – |

| Structure (SMILES) | EC50 | IC50 | outcome |
| --- | --- | --- | --- |
| c1ccc(CN2COc3c(ccc4c5c(ccc34)CN(Cc3ccccc3)CO5)C2)cc1 | > 2.45 µM | > 2.45 µM | – |
| Cc1ccc(C2(O)c3ccccc3N=NN2C)cc1 (stereo unspecified) | > 269 µM | 105 µM | – |
| C(=Nc1ccc(-c2cc(-c3ccccc3)nc3ccc4ccccc4c23)cc1)c1ccccc1 | > 200 µM | 31.6 µM | – |
| CCOC(=O)C1=NN(c2ccccc2)C(=O)/C1=C/N1C(=O)/C(=C/c2ccc([N+](=O)[O-])cc2)SC1=S | > 200 µM | 23.4 µM | – |
| COc1cccc(-n2nnc3c(N)nc(N)nc32)c1 | > 200 µM | > 200 µM | – |
| CCCCNC=C1C(=O)Nc2ccccc2NC1=O | > 200 µM | > 200 µM | – |
| CC(=O)O[C@@H]1CC(C)C2CC2C2=C(C(O)OC2O)[C@@H]1C(C)CCC=C(C)C (stereo partly specified) | > 69.2 µM | 58.9 µM | – |
| O=S(=O)(O)OCCOc1ccc(S(=O)(=O)c2ccc(OCCOS(=O)(=O)O)cc2)cc1 | > 200 µM | > 200 µM | – |
| Nc1ccc2c(c1)NC(=O)[C@@H]1CCCN1C2=O | > 200 µM | > 200 µM | – |
| C=CCOc1ccc(N)c([N+](=O)[O-])c1 | > 200 µM | > 200 µM | – |
| COc1cc(/C=C2\Cc3ccccc3C2=O)cc(OC)c1OC | > 23.4 µM | > 23.4 µM | – |
| O=C(/C(=C/c1cccc(Cl)c1)c1ccccc1)c1ccccc1 | > 8.51 µM | > 8.51 µM | – |
| CC(=O)OC(=C(C#N)C#N)c1nccnc1C(C)=O | > 200 µM | 11.2 µM | – |
| O=C(CCCCCCCCC(=O)N1C(=O)CC(=O)N(c2ccc(Cl)cc2)C1=S)N1C(=O)CC(=O)N(c2ccc(Cl)cc2)C1=S | > 200 µM | 81.3 µM | – |
| Nc1ncnc2c1ncn2CC1OCC(CO)O1 (stereo unspecified) | > 3090 µM | 2750 µM and 2340 µM | – |
| Cc1cc(Cl)ccc1NC(=O)C1C(=O)N(c2ccc(Cl)cc2C)C(=O)/C1=N\NC(N)=S (stereo unspecified) | > 11 µM | > 11 µM | – |
| O=c1ccn(C/C=N/OCCP(=O)(O)O)c(=O)[nH]1 | > 200 µM | > 200 µM | – |
| CC1=CC(C)(C)NC(=S)N1c1ccc(C)c(N2C(=S)NC(C)(C)C=C2C)c1 | – | – | inactive |
| CN(C)c1ccc(/C=C2\CCc3ccccc3C2=O)cc1 | > 9.77 µM | 5.5 µM | – |
| Cc1c(C2=NN=C(N=Nc3c(O)cccc3O)/C2=C/c2ccccc2)c(=O)n(-c2ccccc2)n1C | – | – | inactive |
| C=C(Br)CNC(=O)Nc1ccc(Cl)c(Cl)c1 | > 200 µM | 21.9 µM | – |

| Structure (SMILES) | EC50 | IC50 | outcome |
| --- | --- | --- | --- |
| CCOC(=O)C12OC(OCC)(CC1(OCC)OCC)C1(CC1)C2=O (stereo unspecified) | > 200 µM | > 200 µM | – |
| Nc1ccc(C(=O)Nc2ccccc2N)cc1 | > 1100 µM | 3.8 µM | – |
| COc1ccc(C2CC(=O)c3c(O)cc(OC4OC(COC5OC(C)C(O)C(O)C5O)C(O)C(O)C4O)cc3O2)cc1O (stereo unspecified) | 138 µM | 191 µM | – |
| O=c1cc(-c2ccc3c(c2)OCO3)oc2c(Cl)cc(Cl)cc12 | > 100 µM | 57.5 µM | – |
| Cc1nc(C)c(N2CCN(Cc3ccccc3)CC2)c(=O)[nH]1 | > 200 µM | > 200 µM | – |
| Cc1c(-c2ccccc2)c(=O)oc2c3c(ccc12)OC(C)(C)[C@H](OC(=O)C12CCC(C)(C(=O)O1)C2(C)C)[C@@H]3OC(=O)C12CCC(C)(C(=O)O1)C2(C)C (stereo partly specified) | > 100 µM | > 100 µM | – |
| CN=C(NC)c1ccc(NC(=O)c2ccc(C(=O)Nc3ccc(C(=NC)NC)c(C)c3)cc2)cc1C | – | – | inactive |
| Cc1csc2nc3[nH]ncc3c(=O)n12 | > 200 µM | 97.7 µM | – |
| COC(=O)/C([Se]c1c(C)cc(C)cc1C)=C(/[Se]c1c(C)cc(C)cc1C)C(=O)OC | – | – | inactive |
| C=CC[P@@]1(=O)O[C@H](c2ccccc2)C(C)N1C(C)C (stereo partly specified) | – | – | inactive |
| CCOC(=O)/C=C(/CN1C(=O)c2ccccc2C1=O)c1ccccc1 | – | – | inactive |
| CC(=O)OC1CC2C(C)(C)C(=O)C=C[C@]2(C)C2CCC3(C)C(=CCC3[C@H](CO)C[C@H](O)C(=O)C(C)(C)O)[C@]12C (stereo partly specified) | > 47.9 µM | 18.6 µM | – |
| CCOC(=O)NN1C(=O)c2cccc3c([N+](=O)[O-])ccc(c23)C1=O | > 2 µM | 0.224 µM | – |
| Cc1ccc2c(c1)nc1c3ccccc3nnn21 | > 16.2 µM | > 16.2 µM | – |
| COc1ccc(-c2c(C(C)=O)c(C)n(C3OC(COC(C)=O)C(OC(C)=O)C(OC(C)=O)C3OC(C)=O)c(=S)c2C#N)cc1 (stereo unspecified) | > 200 µM | 87.1 µM | – |
| O=[N+]([O-])c1ccccc1Sc1ccc(Cl)cc1 | > 135 µM | 38.9 µM | – |
| CC(=O)Nc1cc2c(cc1[N+](=O)[O-])-c1cc([N+](=O)[O-])c(NC(C)=O)cc1C2=O | > 200 µM | 25.7 µM | – |
| O=C(O)c1cc2c([nH]1)-c1cc(C(=O)O)c(C(=O)O)nc1C(=O)C2=O | – | – | inactive |
| Nc1nc(N)c(-c2ccccc2)c(CCC(=O)Nc2ccc(Cl)cc2)n1 | > 490 µM | 24 µM | – |
| CCOC(=O)c1nc(C)c(-c2ccccc2)c(-c2ccccc2)c1C | > 11.5 µM | > 11.5 µM | – |
| NC(=O)NN=C1CCC(CC2CCCCC2)CC1 (stereo unspecified) | > 200 µM | 174 µM | – |

| Structure (SMILES) | EC50 | IC50 | outcome |
| --- | --- | --- | --- |
| NC(=O)C(=O)N/N=C1/c2ccccc2CC1C1(O)C(=O)Nc2c(Cl)cc(Cl)cc21 (stereo unspecified) | > 12 µM | > 12 µM | – |
| COc1ccc2nc3ccc(OC)cc3c(SCc3ccccc3)c2c1 | > 200 µM | > 100 µM | – |
| CC1NC(=O)C(C)C(c2ccccc2)N(N=O)C1c1ccccc1 (stereo unspecified) | > 209 µM | 186 µM | – |
| C1=C(c2ccccc2)N2CCCNC2(c2ccccc2)CS1 (stereo unspecified) | > 200 µM | 132 µM | – |
| CCOP(=O)(OCC)C(C)(CC)N/C(=N/C(NC(C)=O)(C(F)(F)F)C(F)(F)F)NC1=NC(C(F)(F)F)(C(F)(F)F)N=C(C(F)(F)F)O1 (stereo unspecified) | > 200 µM | 14.5 µM | – |
| CNc1cc(Cl)ccc1S(=O)(=O)c1ccccc1[N+](=O)[O-] | 5.37 µM | > 200 µM | – |
| Cc1cccc(NC(=O)C(=O)C(C2OC(=O)c3ccccc32)[N+](=O)[O-])c1C (stereo unspecified) | – | – | inactive |
| COc1ccc2c(c1OC)C(=O)c1ccoc1C2=O | – | – | inactive |
| OCC(O)COc1c(Cl)cc(Cl)cc1Cl (stereo unspecified) | > 251 µM | > 251 µM | – |
| CC(C)(C)OC(=O)NCCCCC(NC(=O)C(Cc1c[nH]c2ccccc12)NC(=O)OCC1c2ccccc2-c2ccccc21)C(=O)O (stereo unspecified) (Fmoc-Trp-Lys(Boc)-OH; configuration not given here) | > 200 µM | 102 µM | – |
| CN(c1ccccc1)C1C(=O)N(c2ccccc2)C1/C=C/c1ccccc1 (stereo unspecified) | – | – | inactive |
| COc1cc(/C=C2\C(=O)N(Cc3ccccc3)C(c3ccccc3)S2(=O)=O)cc(OC)c1OC (stereo unspecified) | > 20 µM | 3.31 µM | – |
| O=C(Sc1c(-c2ccccc2)c(=O)n(-c2ccccc2)c(=S)n1-c1ccccc1)c1ccccc1 | > 200 µM | 8.51 µM | – |
| C/C=C1\CN(C(=O)OC(C)(C)C)C1C(=O)OC(C)(C)C (stereo unspecified) | > 200 µM | 85.1 µM | – |
| CC(=O)NC(CCCNC(=O)NCCCl)C(=O)NCc1ccccc1 (stereo unspecified) | > 676 µM | > 676 µM | – |
| COc1ccc(C(OCC2OC(n3ccc(NC(=O)c4ccccc4)nc3=O)C(O)C2O)(c2ccccc2)c2ccccc2)cc1 (stereo unspecified) | > 200 µM | 9.33 µM | – |
| COC(=O)C(C)NC(=O)c1ccccc1SC(=O)CCCC[n+]1ccccc1 (stereo unspecified) | > 200 µM | 2.4 µM | – |
| COc1ccc(CN2CCCN(/N=C/c3c4c(O)c5c(O)c(C)c6c(c5c3O)C(=O)C(C)(O/C=C/C(OC)C(C)C(OC(C)=O)C(C)C(O)C(C)C(O)C(C)/C=C/C=C(C)C(=O)N4)O6)CC2)cc1 (stereo unspecified) | > 200 µM | 12 µM | – |
| O=[N+]([O-])c1cc(Cl)ccc1S(=O)(=O)c1ccccc1 | > 200 µM | 30.2 µM and 55 µM | – |
| CCC1COS(=O)(=O)CS(=O)(=O)O1 (stereo unspecified) | > 1070 µM | 1020 µM | – |
| Cc1cc(Cl)cc2c1NC(=O)C2(O)CC(=O)c1ccc(Br)cc1 (stereo unspecified) | > 91.2 µM | 70.8 µM | – |
